Source: paper PMC6214014, “Dendrimeric Poly(Epsilon-Lysine) Delivery Systems for the Enhanced Permeability of Flurbiprofen across the Blood-Brain Barrier in Alzheimer’s Disease” (International Journal of Molecular Sciences, 2018)
“And” between values parts separate entries of the source, which are not always exact repeats. Equal values may be shown once.

Experiments:
[1] = system: in vitro BBB model (bEnd.3 cells); experiment: Penetration across the in vitro BBB model (bEnd.3 monolayer on Transwell inserts, HPLC); format: in vitro ADME, mouse; details: bEnd.3 Transwell, n = 6
Protocol: The lyophilised powders of synthesised molecules (G0K-FP and G1K-FP) as well as free drug (FP) were dissolved in the FBS-free; phenol-free culture media in a concentration of 200 µM. Quantitative analysis of drug and drug-attached dendrons penetration was conducted using HPLC (Agilent technology/1260 infinity, Stockport, UK). The analysis was carried out using a hydrophobic C18 column (150 × 4.6 mm) and a UV-detection wavelength 248 nm which is the λmax of FP [5]. The gradient of eluent of the mobile phase was run from 75:25 to 25:75 of water: acetonitrile over 20 min. The standard curve for each molecule was obtained to calculate the percentage of transported amount across the in vitro BBB model.
To establish an in vitro BBB model, bEnd.3 cells were cultured on microporous membrane (0.4 µm pore size) of 12-Transwell inserts (Fisher Scientific) with complete culture media. TEER values between apical and basolaterl chambers was measured using an Evom voltometer (Sarasota, FL, USA) to determine the day of maximum values indicating tight junction formation. The measurements were taken up to day 8 of culturing and compared to the results of HUVECs which were also cultured into Transwell-clear inserts. Cell-free Transwell inserts were included to exclude the resistance related to the inserts membrane alone. The apical chambers of bEnd.3 culture were then treated with 200 µM of each samples. After 1 and 4 h incubation, 200 µL samples were taken from the basolateral chambers and percentage of permeability calculated according to the following:PMaterial % = ((CAcceptor × VAcceptor)/(CDonor × VDonor)) × 100%(1) where PMaterial %: the percentage of permeability of the tested material, CAcceptor: the concentration of the tested material in basal chamber, VAcceptor: the volume of the culture media in the basal chamber, CDonor: the initial concentration of the tested material in the apical chamber, VDonor: the volume of the culture media in the apical chamber.

[2] = system: brain endothelial cells and Caco-2 cell monolayers; parameters: method as in PMID 23089576; details: cited from earlier work
[3] = system: bEnd.3 cells monolayer; parameters: method as in PMID 24280275; details: cited from earlier work
[4] = parameters: method as in PMID 7736686; details: cited from earlier work
[5] = system: γ-secretase; parameters: method as in PMID 20009055, PMID 18450517; details: at the target tissue site; cited from earlier work
[6] = parameters: method as in PMID 7736686; details: cited from earlier work; remark: listed apart in the source
[7] = system: γ-secretase enzyme; experiment: Quantification of γ-secretase enzyme in C6 glial cells (sandwich ELISA); format: cell-based; details: 200 µM, 4 h incubation, untreated control 28.43 ± 8.32 pg/mL, n = 6
Protocol: The C6 glial cells seeded in a density of 5 × 10^4 cells per cm^2 and incubated at 37 °C and 5% CO2. The investigation is based on sandwich enzyme-linked immune-sorbent assay (ELISA) technology using γ-secretase enzyme kit (Abbexa Ltd., Cambridge, UK). C6 glial cells were cultured in 24-well plates at density 5 × 10^4 cells per cm^2, and at confluence, they were treated with 200 μM FP, […]-FP, or […]-FP dissolved in […] media. Wells containing untreated C6 cells were also included as a control. After 4 h incubation, cells were washed with PBS and lysed via freezing to -20 °C and thawing to room temperature 3 times. […] The collected samples were used immediately to avoid any degradation and denaturalisation. The standard curve of γ-secretase standards (supplied with kit) was constructed and the concentration of γ-secretase was calculated for each sample.

[8] = 1 h after applying 200 µM to apical chamber
[9] = 4 h after applying 200 µM to apical chamber

## CC(C(=O)NCCCC[C@H](NC(=O)C(C)c1ccc(-c2ccccc2)c(F)c1)C(=O)N[C@@H](Cc1ccccc1)C(=O)O)c1ccc(-c2ccccc2)c(F)c1 (stereo partly drawn) [G0K-FP, Generation 0 lysine dendron-2Flurbiprofen]
[1]; [8]
  % Of Permeability (Mean ± SD): 5.3% and 5.31 ± 2.73%
[1]; [9]
  % Of Permeability (Mean ± SD): 12.5% and 12.48 ± 3.42%

## paclitaxel
[2]
  fold greater permeability than paclitaxel alone: 12 fold

## CC(C(=O)O)c1ccc(-c2ccccc2)c(F)c1 (stereo not drawn) [FP, Flurbiprofen]
[3]
  diffusion through bEnd.3 cells monolayer: approximately 10%
[4]
  biological half-life: 4 h
  time to full excretion from the body: ≤ 24 h
[5]
  required therapeutic concentration for pharmacologically-significant effect on γ-secretase activity: 150–250 µM
[6]
  water solubility: poorly water-soluble
[1]; [8]
  % Of Permeability (Mean ± SD): 2.71 ± 1.52%
[1]; [9]
  % Of Permeability (Mean ± SD): 8.50 ± 1.32%
[1]; 4 h after applying 200 µM to apical chamber, listed as Free FP
  % Of Permeability (Mean ± SD): less than 9%
[1]; 4 h after applying 200 µM to apical chamber, listed as free drug
  % Of Permeability (Mean ± SD): not more than 8.5%
[7]
  γ-Secretase Enzyme Concentration (Mean ± SD): 8.2 pg/mL and 8.20 ± 3.80 pg/mL

## CC(C(=O)NCCCC[C@H](NC(=O)C(C)c1ccc(-c2ccccc2)c(F)c1)C(=O)NCCCC[C@H](NC(=O)[C@H](CCCCNC(=O)C(C)c1ccc(-c2ccccc2)c(F)c1)NC(=O)C(C)c1ccc(-c2ccccc2)c(F)c1)C(=O)N[C@@H](Cc1ccccc1)C(=O)O)c1ccc(-c2ccccc2)c(F)c1 (stereo partly drawn) [G1K-FP, Generation 1 lysine dendron-4Flurbiprofen]
[1]; [8]
  % Of Permeability (Mean ± SD): 4.3% and 4.32 ± 1.05%
[1]; [9]
  % Of Permeability (Mean ± SD): 14.8% and 14.79 ± 2.06%
